For test [1], the system named is human IgG. The following applies: cited from earlier work.
In test [2] the target is T1, rabbit IgG (Oryctolagus cuniculus, UniProt P01870).
T1 construct: purchased Sigma-Aldrich
The following applies: Gong et al.; cited from earlier work.

Test [3] has as its system IgG-Fc-region. The following applies: DeLano et al. 2000; cited from earlier work.
In test [4] the test system is human IgG. Put plainly: SPR interaction assay (Biacore), scaffolds immobilised, human IgG as analyte. It counts as binding. The following applies: hIgG at 25° C. On the procedure:
Surface plasmon resonance (SPR) The affinities and binding kinetics of the generated TtSlyD-Fc-III-4C mutants were evaluated by SPR using a Biacore biosensensor system. The Biacore system enables a real-time monitoring of intermolecular interactions between the ligand, immobilised on a sensor chip gold-surface, and the analyte which is free in solution and passes over the ligand (Healthcare, G., Biacore™ Assay Handbook 29-0194-00 Edition AA). Interaction of the binding partners leads to SPR signals (responses), measured in resonance units (RU) and illustrated as plot against time (sensorgram).
Regarding the procedure, in brief, the analyte is injected on the chip, interacting with the immobilised ligand. The change in concentration of molecules at the chip surface leads to a change in the refractive index, monitored as response unit (RU). Dissociation of analyte is triggered by continues buffer flow, followed by complete removal (chip regeneration) and starting of a new analysis cycle. […]
Interaction kinetics are examined by monitoring different analyte concentrations over time. Kinetic parameters, such as association (ka) and dissociation rate constants (kd) are evaluated in relation to a mathematical model. […]

T1 sequence (P01870 whole entry): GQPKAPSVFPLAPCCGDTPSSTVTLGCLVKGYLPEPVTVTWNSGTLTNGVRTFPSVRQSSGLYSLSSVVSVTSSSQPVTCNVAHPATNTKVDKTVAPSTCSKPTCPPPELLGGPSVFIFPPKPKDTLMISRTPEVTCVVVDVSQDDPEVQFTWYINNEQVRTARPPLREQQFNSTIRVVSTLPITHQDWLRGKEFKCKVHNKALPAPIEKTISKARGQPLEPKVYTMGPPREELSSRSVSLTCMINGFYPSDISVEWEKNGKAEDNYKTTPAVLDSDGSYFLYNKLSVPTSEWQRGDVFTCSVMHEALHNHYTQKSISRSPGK

Regarding CDCAWHLGELVWCTC [Fc-III-4C], the “higher binding affinity to human IgG compared to the original Fc-III” value in test [1] (SPR) was 30 fold. Besides, the dissociation constant (Kd) in test [1] (human IgG, Gong et al. 2016) was 2.45 nM; in test [2], 5.67 nM.
On to DCAWHLGELVWCT [Fc-III], for which the “binding affinity relative to Protein A” value in test [3] is recorded as “only about two fold weaker”.

B1: TtSlyD-Fc-III-2C Hit No. 4: SlyD chimera whose IF domain is replaced by Fc-III-XC peptide EDCAWHLGELVWCTE, SEQ ID NO: 16 (protein)
chain: MKVGQDKVVTIRYTLQVEGEVLDQGELSYLHGHRLIPGLEEALEGREEGEAFQAHVPAEKAYEDCAWHLGELVWCTEGKDLDFQVEVVKVREATPEELLHGHA
modifications: left off: small tags and cut ends
Take B1: in test [4], the “binding affinity KA” value turned out to be 1.09e+08 M⁻¹ and the t/2 diss is 36 min.

(Values after patent US20250197457A1, “CHIMERIC IGG-FC-BINDING LIGAND POLYPEPTIDE AND USES THEREOF FOR IGG AFFINITY PURIFICATION” (Roche Diagnostics Operations, Inc., priority 2021, published 2025).)
